Values of other authors, collected in PubChem BioAssay AID1259410 (Chemical Carcinogenesis Research Information System (CCRIS), 2018).

Tested on: rodent tumor promotion studies, tumor incidence
Assay: CCRIS tumor promotion studies

CCC1(c2ccccc2)C(=O)NC(=O)NC1=O
outcome (Carcinogen: 2-(ACETYLAMINO)FLUORINE, Doses [Carcinogen]: DIET, Doses [Promoter]: IN DIET, Route [Carcinogen]: ORAL, Route [Promoter]: ORAL, Species: RAT, Strain/Sex: MALE): liver
outcome (Carcinogen: 3'-METHYL-4-DIMETHYLAMINOAZOBENZENE, Doses [Carcinogen]: DIET, Doses [Promoter]: IN DIET, Route [Carcinogen]: ORAL, Route [Promoter]: ORAL, Species: RAT, Strain/Sex: MALE): liver
outcome (Carcinogen: 4-DIMETHYLAMINOAZOBENZENE, Doses [Carcinogen]: DIET, Doses [Promoter]: IN DIET, Route [Carcinogen]: ORAL, Route [Promoter]: ORAL, Species: RAT, Strain/Sex: MALE): liver
outcome (Carcinogen: DIETHYLNITROSAMINE [55-18-5], Doses [Carcinogen]: 90 MG/KG BW ONCE, Doses [Promoter]: 90 MG/KG BW DAILY FOR UP TO 76 WK STARTING 2 WK AFTER CARCINOGEN TREATMENT (STUDY DURATION: 76 WK), Route [Carcinogen]: IP INJECTION, Route [Promoter]: DIET, Species: MOUSE, Strain/Sex: C3H/HE/MALE): liver: tumor incidence was 100% by 52 wk and 10 tumors/animal
outcome (Carcinogen: DIETHYLNITROSAMINE [55-18-5], Doses [Carcinogen]: 90 MG/KG BW ONCE, Doses [Promoter]: 90 MG/KG BW DAILY FOR UP TO 90 WK STARTING 2 WK AFTER CARCINOGEN TREATMENT (STUDY DURATION: 92 WK), Route [Carcinogen]: IP INJECTION, Route [Promoter]: DIET, Species: MOUSE, Strain/Sex: B6C3F1/MALE): liver: promoter increased liver tumor incidence considerably, 12 tumors/animal a
outcome (Carcinogen: DIETHYLNITROSAMINE [55-18-5], Doses [Carcinogen]: 90 MG/KG BW ONCE, Doses [Promoter]: 90 MG/KG BW DAILY FOR UP TO 90 WK STARTING 2 WK AFTER CARCINOGEN TREATMENT (STUDY DURATION: 92 WK), Route [Carcinogen]: IP INJECTION, Route [Promoter]: DIET, Species: MOUSE, Strain/Sex: C57BL/6J/MALE): liver: tumor; 5 tumors/animal at 76 wk; pb increased tumors somewhat at 40-92 wk
outcome (Carcinogen: DIETHYLNITROSAMINE, 55-18-5, Doses [Carcinogen]: 5 MG/KG IN SALINE ONCE ON DAY 15 OF AGE, Doses [Promoter]: 0, 500 MG/L FOR 24 WK BEGINNING AT 28 DAYS OF AGE (STUDY DURATION: 28 WK), Route [Carcinogen]: INTRAPERITONEAL, Route [Promoter]: ORAL, Species: MOUSE, Strain/Sex: C3H/MALE): liver: adenoma
outcome (Carcinogen: DIETHYLNITROSAMINE, 55-18-5, Doses [Carcinogen]: 10 MG/KG ONCE, Doses [Promoter]: 0, 500 PPM IN DIET FOR 140 D BEGINNING 30 D POST CARCINOGEN DOSE (STUDY DURATION: 450 D), Route [Carcinogen]: INTRAPERITONEAL, Route [Promoter]: ORAL, Species: RAT, Strain/Sex: SPRAGUE-DAWLEY/FEMALE): liver: adenoma or carcinoma
outcome (Carcinogen: DIETHYLNITROSAMINE, 55-18-5, Doses [Carcinogen]: 80 MG/KG BW ONCE, Doses [Promoter]: 0, 0.05% IN DIET FOR 39 WK BEGINNING 1 WK POST CARCINOGEN DOSE (STUDY DURATION: 40 WK), Route [Carcinogen]: INTRAPERITONEAL, Route [Promoter]: ORAL, Species: RAT, Strain/Sex: F344/MALE): liver: tumor
outcome (Carcinogen: DIETHYLNITROSAMINE, 55-18-5, Doses [Carcinogen]: 150 MG/KG ONCE, Doses [Promoter]: 0.05% IN DIET BEGINNING 2 WK POST CARCINOGEN DOSE AND CONTINUING FOR 54 WK (STUDY DURATION: 56 WK), Route [Carcinogen]: INTRAPERITONEAL, Route [Promoter]: ORAL, Species: RAT, Strain/Sex: F344/MALE): liver: hepatocellular carcinoma or neoplastic nodule
outcome (Carcinogen: DIETHYLNITROSAMINE, 55-18-5, Doses [Carcinogen]: 150 MG/KG ONCE, Doses [Promoter]: 0.05% IN DIET BEGINNING 2 WK POST CARCINOGEN DOSE FOR 11 WK FOLLOWED BY CONTROL DIET FOR DURATION OF STUDY (STUDY DURATI, Route [Carcinogen]: INTRAPERITONEAL, Route [Promoter]: ORAL, Species: RAT, Strain/Sex: F344/MALE): liver: hepatocellular carcinoma or neoplastic nodule
outcome (Carcinogen: DIETHYLNITROSAMINE, 55-18-5, Doses [Carcinogen]: 150 MG/KG ONCE, Doses [Promoter]: 0.05% IN DIET BEGINNING 11 WK POST CARCINOGEN DOSE AND CONTINUING FOR DURATION OF STUDY (STUDY DURATION: 56 WK), Route [Carcinogen]: INTRAPERITONEAL, Route [Promoter]: ORAL, Species: RAT, Strain/Sex: F344/MALE): liver: hepatocellular carcinoma or neoplastic nodule
outcome (Carcinogen: DIETHYLNITROSAMINE, Doses [Carcinogen]: SC, Doses [Promoter]: IN DIET, Route [Carcinogen]: SUBCUTANEOUS, Route [Promoter]: ORAL, Species: RAT, Strain/Sex: MALE): liver
outcome (Carcinogen: DIMETHYLNITROSAMINE, 62-75-9, Doses [Carcinogen]: 5 MG/KG IN SALINE ONCE ON DAY 15 OF AGE, Doses [Promoter]: 0, 500 MG/L FOR 24 WK BEGINNING AT 28 DAYS OF AGE (STUDY DURATION: 28 WK), Route [Carcinogen]: INTRAPERITONEAL, Route [Promoter]: ORAL, Species: MOUSE, Strain/Sex: B6C3F1/MALE): liver: adenoma
outcome (Carcinogen: DIMETHYLNITROSAMINE, 62-75-9, Doses [Carcinogen]: 5 MG/KG IN SALINE ONCE ON DAY 15 OF AGE, Doses [Promoter]: 0, 500 MG/L FOR 24 WK BEGINNING AT 28 DAYS OF AGE (STUDY DURATION: 28 WK), Route [Carcinogen]: INTRAPERITONEAL, Route [Promoter]: ORAL, Species: MOUSE, Strain/Sex: C3H/MALE): liver: adenoma
